From patent publication US20150018403A1, “FLUORENE-AMIDE COMPOUNDS AND PHARMACEUTICAL USE THEREOF” (JAPAN TOBACCO INC., priority 2013, published 2015)

Key:
[1] = target: T1, hERG current (hERG-transfected HEK293 cells) (Homo sapiens, UniProt Q12809); test: hERG whole cell patch clamp test; type: cell-based; settings: whole cell patch clamp, hERG-transfected HEK293 cells
T1 construct: host or cells: HEK293
Experimental: (§1) Using human ether-a-go-go related gene (hERG)-transfected HEK293 cells (Cytomyx Limited), an influence on hERG current was examined according to the whole cell patch clamp technique. The hERG-transfected HEK293 cells were passaged using a CO2 incubator (BNA-111, TABAI ESPEC CORP.) under the set conditions of 37° C., 5% CO2, saturated humidity. Culture containers used were Collagen Type I Coated 75 cm^2 flask (4123-010, AGC TECHNO GLASS CO., Ltd.) and Collagen Type I Coated 35 mm culture dish (4000-010, AGC TECHNO GLASS CO., Ltd.). The culture medium used was E-MEM (Eagle Minimum Essential Medium (Earle's Salts, Nikken biomedical laboratory) added with 10% FCS (Fetal bovine serum, BioWest, L.L.C.) and 1% MEM Non-Essential Amino Acids Solution (NEAA, Invitrogen Corporation). Geneticin for the selection of hERG gene expressing cells was added thereto to a concentration of 400 μg/mL. As the cells for the measurement, 3×10^4 hERG-transfected HEK293 cells were plated on a 35 mm culture dish 4 to 7 days before measurement of the hERG current. The culture dish produced for the measurement contained the above-mentioned culture medium without geneticin (Invitrogen Corporation).
(§2) The highest evaluation concentration of each compound was determined from the highest concentration at which precipitation was not found in the standard extracellular fluid (NaCl: 140 mmol/L, KCl: 2.5 mmol/L, MgCl2: 2 mmol/L, CaCl2: 2 mmol/L, HEPES: 10 mmol/L, glucose: 10 mmol/L (adjusted to pH 7.4 with Tris-base)). As the application method, each solution to be applied was ejected from a Y-tube having a tip diameter of about 0.25 mm, which was adjacent (about 2 mm) to the cells, and applied to the cells. The ejection rate was about 0.4 mL/min.
(§3) The experiment was performed at room temperature under a phase contrast microscope. The 35 mm culture dish plated with the cells was set on a measurement apparatus, and the standard extracellular fluid was continuously applied to the cells from the Y-tube. A glass electrode for the measurement was filled with an intracellular fluid (Potassium Gluconate: 130 mmol/L, KCl: 20 mmol/L, MgCl2: 1 mmol/L, ATP-Mg: 5 mmol/L, EGTA: 3.5 mmol/L, HEPES: 10 mmol/L (adjusted to pH 7.2 with Tris-base)). A conventional whole cell patch clamp method was applied to the cells, and the maintenance electric potential was set to −80 mV. Under a fixed electric potential, the whole cell current was amplified by an amplifier for patch clamp (AXOPATCH-200B, Axon Instruments, Inc.), and the data was loaded into a computer (IMC-P642400, Intermedical Co., Ltd.) using a data acquisition analysis software (pCLAMP 9.2, Axon Instruments, Inc.).
(§4) The measurement of the hERG current was performed in the following two steps. In both cases, the hERG current was initiated by giving a command potential (maintenance electric potential −80 mV, prepulse+20 mV, 1.5 sec, test-pulse −50 mV, 1.5 sec).
(§5) Step (1): The above-mentioned command potential was given at 0.1 Hz for 2 min.
(§6) Step (2): The above-mentioned command potential was subjected to P/3 subtraction of pCLAMP 9.2 to remove leak current. This was repeated three times and an average thereof was taken as hERG current.
(§7) Subsequent to step (1), Step (2) was performed (about 3 min), and the maximum tail current obtained by applying a test-pulse to the hERG current obtained by the method of step (2) was taken as hERG current value. Hereafter, the operations of (1) and (2) were alternately repeated until completion of the experiment and the hERG current value was measured.
(§8) Stable hERG current value was recorded three times (about 10 min), and the standard extracellular fluid was instantaneously exchanged with each application fluid. The hERG current value was measured three times (about 10 min) in the same manner during perfusion of the application fluid, and the current value obtained by the 3rd measurement was taken as hERG current value after perfusion of the application fluid. […]

[2] = target: T2, hERG (Homo sapiens, UniProt Q12809); test: hERG whole cell patch clamp test; type: cell-based; settings: human, HEK293 cells transfected with hERG, pH 7.4, read-out: hERG inhibition rate (%); for inhibition at 10 μmol/L: concentration 10 μmol/L
T2 construct: host or cells: HEK293
Experimental: as §1, §2, §3, §4, §5, §6, §7, §8

T2 sequence (Q12809 whole entry): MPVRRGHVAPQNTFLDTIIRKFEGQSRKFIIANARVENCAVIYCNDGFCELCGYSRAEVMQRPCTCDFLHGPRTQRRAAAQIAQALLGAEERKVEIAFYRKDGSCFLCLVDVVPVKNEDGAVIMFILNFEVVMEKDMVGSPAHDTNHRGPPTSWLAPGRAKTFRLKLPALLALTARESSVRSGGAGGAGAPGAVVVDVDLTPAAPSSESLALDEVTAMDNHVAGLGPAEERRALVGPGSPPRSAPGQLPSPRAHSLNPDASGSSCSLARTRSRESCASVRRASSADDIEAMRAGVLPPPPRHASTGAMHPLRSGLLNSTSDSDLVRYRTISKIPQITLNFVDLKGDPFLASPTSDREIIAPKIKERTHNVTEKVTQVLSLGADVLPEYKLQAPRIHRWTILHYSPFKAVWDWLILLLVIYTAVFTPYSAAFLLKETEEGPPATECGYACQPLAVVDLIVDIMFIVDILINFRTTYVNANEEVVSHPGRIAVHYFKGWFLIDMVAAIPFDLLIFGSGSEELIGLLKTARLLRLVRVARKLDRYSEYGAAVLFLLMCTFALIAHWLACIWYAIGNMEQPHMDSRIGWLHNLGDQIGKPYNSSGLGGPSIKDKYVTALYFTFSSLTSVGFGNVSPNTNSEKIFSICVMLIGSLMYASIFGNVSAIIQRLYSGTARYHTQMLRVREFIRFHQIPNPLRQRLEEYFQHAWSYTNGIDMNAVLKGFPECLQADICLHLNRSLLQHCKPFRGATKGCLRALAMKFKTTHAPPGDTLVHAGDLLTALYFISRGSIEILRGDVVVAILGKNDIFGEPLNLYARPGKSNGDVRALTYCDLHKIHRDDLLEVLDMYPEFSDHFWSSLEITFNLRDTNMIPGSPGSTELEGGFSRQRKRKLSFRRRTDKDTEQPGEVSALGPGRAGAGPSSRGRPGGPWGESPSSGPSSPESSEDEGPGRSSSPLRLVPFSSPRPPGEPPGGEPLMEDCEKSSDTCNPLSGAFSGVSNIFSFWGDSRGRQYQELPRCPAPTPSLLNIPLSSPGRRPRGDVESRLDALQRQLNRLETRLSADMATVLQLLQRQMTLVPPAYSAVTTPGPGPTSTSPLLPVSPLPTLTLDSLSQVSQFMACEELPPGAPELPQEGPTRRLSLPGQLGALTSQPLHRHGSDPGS
T1 sequence (Q12809 whole entry): as above

Row | SMILES | IC50 [1] [µM] | inhibition at 10 μmol/L [2] [%] | inhibition at 100 μmol/L ([2]; concentration 100 μmol/L) [%] | inhibition at 1 μmol/L ([2]; concentration 1 μmol/L) [%]
1 | C[C@H](O)COc1cc(-c2cnn(C(C)(C)C(N)=O)c2)c2c(c1)[C@@](O)(C(F)(F)F)c1ccccc1-2 [compound (2), 2-(4-{(9R)-9-hydroxy-2-[(2S)-2-hydroxypropoxy]-9-(trifluoromethyl)-9H-fluoren-4-yl}-1H-pyrazol-1-yl)-2-methylpropanamide] | 58.8 | 7.5 | 62.9 | 
2 | Cn1cc(-c2cc(OCC(C)(C)O)cc3c2-c2ccccc2[C@]3(O)C(F)(F)F)cn1 [compound (B), (9R)-2-(2-Hydroxy-2-methylpropoxy)-4-(1-methyl-1H-pyrazol-4-yl)-9-(trifluoromethyl)-9H-fluoren-9-ol, reference compound] | 3.6 | 72.9 |  | 17.4
